Read-outs that look alike come from different tables or passages of the source.

Assay [1] addresses T1, human A3 receptor fused to YFP (A3-YFP) (Homo sapiens, UniProt P0DMS8).
T1 construct: cDNA encoding the full length human A3 receptor; expressed in transfected cells
T1 sequence (P0DMS8 1-318): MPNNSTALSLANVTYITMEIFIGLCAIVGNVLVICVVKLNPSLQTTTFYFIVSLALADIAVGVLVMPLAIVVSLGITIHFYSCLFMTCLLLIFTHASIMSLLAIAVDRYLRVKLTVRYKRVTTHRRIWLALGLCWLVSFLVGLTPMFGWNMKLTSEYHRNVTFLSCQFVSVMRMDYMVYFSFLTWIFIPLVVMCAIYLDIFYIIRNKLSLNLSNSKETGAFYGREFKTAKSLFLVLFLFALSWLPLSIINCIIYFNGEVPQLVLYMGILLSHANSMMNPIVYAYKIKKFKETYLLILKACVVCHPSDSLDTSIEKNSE
The assay can be described thus: Automated imaging of receptor internalization (granularity analysis), A3-YFP. The assay is classed as cell-based. Conditions: for Maximal internalization (%): percentage of internalization with 10 μM NECA in the cell line. An excerpt:
Immediately before experimentation, normal growth medium was replaced with serum-free medium. […] Medium was removed and cells were washed once in PBS. […] Images were obtained using an ImageXpress Ultra confocal plate reader (Molecular Devices, Sunnyvale, CA, USA). Four central images were obtained per well using a Plan Fluor 40x NA0.6 extra-long working distance objective. BiFC and YFP images were obtained by excitation with a 488 nm laser line with emission collected through a 525-550 nm band pass filter and H33342 images obtained by excitation with a 405 nm laser line and emission collected through a 447-460 nm band pass filter. Granularity analysis was performed on the resulting images using a granularity algorithm within MetaXpress software (Molecular Devices, Sunnyvale, CA, USA) and intensity above background was set for each individual experiment (Kilpatrick et al., [2010]). Areas of internalized receptors were identified by granularity analysis; granules were defined as having a diameter of between 7 and 15 μm and nuclei as having a diameter of between 6 and 9 μm, resulting in a measurement of the granule count per cell for each image. A basal and FSK control was included in each separate concentration-response CRE-SPAP gene transcription assay and cAMP accumulation assay to allow the responses in each cell line to be expressed as an inhibition of FSK-stimulated SPAP production. […] All data were fitted using non-linear regression in Prism 5 (GraphPad Software, San Diego, CA, USA). […] Statistical significance was determined by Student's unpaired t-test or by one-way ANOVA with Dunnett's post hoc analysis and P < 0.05 was considered statistically significant.

Assay [2] addresses T2, A3-YFP (Homo sapiens, UniProt P0DMS8).
T2 construct: cDNA encoding the full length human A3 receptor; expressed in transfected cells
T2 sequence (P0DMS8 1-318): T1 sequence (P0DMS8 1-318)
The assay can be described thus: [3H]-cAMP accumulation assay, A3-YFP. The assay is classed as cell-based. Conditions: for Emax: read-out: Maximum response (% inhibition of 3 μM FSK), cAMP accumulation assay, A3-YFP cells, 1 h stimulation. As to the method:
On the day of analysis, cells were labelled with [^3H]-adenine (2 μCi·mL^−1) in a total volume of 600 μL per well for 2 h at 37°C/5% CO2 in normal growth medium. After 2 h, the [^3H]-adenine-containing medium was removed; cells washed once in serum-free medium and fresh serum-free medium, containing 10 μM rolipram, added. The required concentration of agonist was added to the appropriate well and cells incubated for 10 min at 37°C. After 10 min, 10 μM FSK was added to all wells, apart from basal wells, and cells were incubated for a further 1 h at 37°C. The assay was terminated by the addition of 50 μL concentrated HCl to each well. The levels of [^3H]-cAMP incorporated were measured by sequential Dowex and alumina chromatography and the efficiency of each column was determined by the recovery of [^14C]-cAMP as described by Donaldson et al. ([1988]).
A basal and FSK control was included in each separate concentration-response CRE-SPAP gene transcription assay and cAMP accumulation assay to allow the responses in each cell line to be expressed as an inhibition of FSK-stimulated SPAP production.
Background: Changes in cAMP serve as a functional read-out for many G protein-coupled receptors.

For the compound `CCCCC#Cc1nc(NC)c2ncn([C@@H]3O[C@H](CO)[C@@H](O)[C@H]3O)c2n1` [HEMADO, 2-(1-hexynyl)-N-methyladenosine], the EC50 in assay [1] (A3-YFP CHO CRE-SPAP cells, 45 min, granule count per cell, read-out: pEC50 (internalization) (converted)) is 245 nM; in assay [1] (A3-YFP cells, PTx 100 ng·mL−1 overnight, read-out: pEC50 (internalization) in the presence of PTx (converted)), 282 nM; in assay [2] (read-out: pEC50 (cAMP accumulation assay) (converted)), 2.4 nM. In assay [1] (A3-YFP cells, PTx pretreatment, reduction vs. 10 μM NECA internalization), the “decrease in the maximal levels of internalization in the presence of PTx” value came to 30 ± 6%. The “Maximal internalization (%)” value in assay [1] (A3-YFP cells) was 105.1±11.0%. The Emax in assay [2] was 80 ± 5.1%.
As for `CCNC(=O)[C@H]1O[C@@H](n2cnc3c(N)ncnc32)[C@H](O)[C@@H]1O` [NECA, 5-(N-ethylcarboxamido)adenosine], in assay [1] (A3-YFP cells), the “Maximal internalization (%)” value is 100%. Also, the Emax in assay [2] came out at 77.5 ± 6.9%.

Values taken from article PMC4128046, “Effect of a toggle switch mutation in TM6 of the human adenosine A3 receptor on Gi protein-dependent signalling and Gi-independent receptor internalization” (British Journal of Pharmacology, 2014).
